Laboratory results reported in patent US11796610B2, “Compositions as molecular tags for hyperpolarization NMR and magnetic resonance and methods of making and using same” (Duke University, priority 2018, dated 2023).
Blank lines part the entries; values can stand above or below the molecule they belong to.

Tests used:
Format in all cases: physicochemical
[1] = Hyperpolarization then cycloaddition with cyclooctyne 2: enhancement and lifetime of products; details: methanol-d4; for signal enhancement over thermal spectra, product anti-phase (singlet) signal: tetrazine scalar order hyperpolarized at 0.3 mT, then 2 injected
Description: For the hyperpolarization of the cycloaddition products 3a and 3b, a solution of tetrazine (1a or 1b, respectively), pyridine, and Ir catalyst in methanol-d4 was first hyperpolarized at 0.4 μT or 0.3 mT, depending on which spin order was studied (solution preparation and hyperpolarization procedure described above in Example 4). After hyperpolarization, the para-H2 gas flow was stopped and the pressure was released through the exhaust outlet, after which the injection valve (shown in FIG. 5) was quickly opened to inject a solution of cyclooctyne 2 (4.5 mM) in methanol-d4 (200 μL) (equiv of tetrazine:2=1.0:1.5). Injection was completed in less than 1 second, and the sample was shaken for 3 seconds to reach complete reaction, visually evidenced by the color change from pink (i.e., the color of the tetrazine) to transparent. The sample was then manually transferred to an 8.5 T spectrometer for product signal read out.
Upon the cycloaddition reaction, a noticeable difference in chemical shift is observed on both nitrogen atoms (i.e., N1 and N2 in 1a vs. N1′ and N2′ in 3a). […] Hyperpolarized 3a and ^15N2 are observed. FIG. 3, panels c, e, and g show representative T1 or Ts decay measurements for product 3a magnetization, 3a singlet order, and 3b singlet order, respectively. […] FIG. 3, panels d, f, and h show lifetime measurement data, exponential fit of the data, and calculated T1 or Ts values for product 3a magnetization, 3a singlet order, and 3b singlet order, respectively. In the hyperpolarization-cycloaddition experiments, para-hydrogen was bubbled into a solution of ^15N4-1,2,4,5-tetrazine 1a or 1b (1.5 mM), pyridine (1.0 mM), and Ir(COD)(IMes)Cl (0.15 mM) in methanol-d4 (400 uL), then a solution of 2 (1.5 equivalents) in methanol-d4 (200 μL) was added. The sample was held at 0.3 mT for a variable amount of time before transport to the magnet for detection.

[2] = SABRE-SHEATH hyperpolarization of 15N4-1,2,4,5-tetrazines in methanol-d4
Protocol: Unless otherwise described, a solution of ^15N-enriched tetrazine (1a or 1b, 1.5 mM), pyridine (1.0 mM), and Ir(IMes)(COD) Cl (0.15 mM) in methanol-d4 (400 μL) was prepared. Note: IMes=1,3-bis(2,4,6-trimethylphenyl) imidazol-2-ylidene; COD=1,5-cyclooctadiene.
The Ir catalyst was pre-activated by bubbling para-H2 through a solution of tetrazine, pyridine, and Ir catalyst (sample preparation described above) for 30 minutes. Following pre-activation, the tetrazine was hyperpolarized, either magnetization or singlet order.
To hyperpolarize magnetization, the solution was placed inside the magnetic shield, with the magnetic field adjusted to 0.4 μT (using a solenoid of 430 mm with 205 turns and a voltage of 7.5 V across 11.4 kOhms). After 3 minutes' bubbling of para-H2, the gas flow was stopped and the sample was manually transferred from the low field to an 8.5 T spectrometer for signal read out as quickly as possible. This manual transfer takes ˜8 seconds, and a 90° pulse-acquire sequence was used for read out.
To hyperpolarize singlet, the sample was placed at a magnetic field of 0.3 mT and para-H2 was bubbled through the solution for 3 minutes. As described in the above procedure, the sample was then manually transferred to an 8.5 T spectrometer as quickly as possible and detected using a 90° pulse-acquire sequence.
Depending on the magnetic field at which hyperpolarization was induced, in-phase signal (magnetization) or anti-phase signal (singlet) was observed. Enhancement values (ε) and polarization levels (p) were obtained by comparison of the hyperpolarized spectrum to a thermal reference spectrum of the respective ^15N4-1,2,4,5-tetrazine. […] Measurement at 0.3 mT. Sample as a solution of ^15N4-1,2,4,5-tetrazine (1.5 mM), pyridine (1.0 mM), and Ir(COD)(IMes)Cl (0.15 mM) in methanol-d4 (400 uL).
Hyperpolarization of 1a and 1b was examined by standard SABRE-SHEATH procedure, as reported by Theis et al. (“Direct and cost-efficient hyperpolarization of long-lived nuclear spin states on universal ^15N2-diazirine molecular tags,” Sci. Adv. 2, e1501438 (2016)). Two different hyperpolarized states for ^15N4-1,2,4,5-tetrazine 1a were observed, depending upon the chosen magnetic field at which the para-hydrogen gas is applied to the sample (FIG. 2b). At very low magnetic fields (˜0.4 μT), the ^15N spin pairs of the tetrazine are hyperpolarized in the triplet states and display in-phase signal upon detection at 8.45 T (i.e., magnetization is hyperpolarized). Conversely, at a relatively broad range of slightly elevated magnetic fields (˜0.2 mT<B<˜50 mT), anti-phase signals are observed after a 90° pulse. In this case, scalar order is hyperpolarized in the tetrazine spin pairs, associated with singlet states on ^15N-spin pairs; upon transfer to high magnetic field for detection, this scalar order is transformed into anti-aligned magnetization (I⋅S is adiabatically converted to Iz-Sz).

[3] = Kinetic characterization of tetrazine/cyclooctyne reaction; details: 1.5 mM tetrazine, 1.5 equivalent of 2, CD3OD
Protocol: Emulating hyperpolarization conditions (below), a 1.5 mM solution of 1c (1 equivalent) in CD3OD (400 μL) was added to an NMR tube. To this solution, a 4.5 mM solution of 2 (1.5 equivalent) in CD3OD (200 μL) was added and the NMR tube was shaken vigorously. Immediately upon addition, the color of the solution changed from pink (due to the pink color of the tetrazine 1c) to colorless. As soon as the pink color completely dissipated (<2 seconds), the sample was placed into the NMR and a spectrum was acquired. The upper trace represents 1c and the lower trace represents 3c, i.e., the product of the cycloaddition reaction.

[4] = Concentration dependence of tetrazine hyperpolarization (enhancement and lifetime); details: for T1 / Ts: decay at 0.3 mT
Protocol: Using serial dilution, solutions of tetrazine 1a, pyridine, and Ir catalyst in methanol-d4 (400 μL) were prepared at different concentrations, but in the same ratio of each component: • (i) 1a (7.5 mM), pyridine (5.0 mM), and Ir(IMES)(COD)Cl (0.75 mM) • (ii) 1a (3.8 mM), pyridine (2.5 mM), and Ir(IMES)(COD)Cl (0.38 mM) • (iii) 1a (1.5 mM), pyridine (1.0 mM), and Ir(IMES)(COD)Cl (0.15 mM) (i.e., default concentrations of solution used in all other experiments) • (iv) 1a (0.60 mM), pyridine (0.40 mM), and Ir(IMES)(COD)Cl (0.060 mM)
For the rest of this section, samples are referred to by the concentration of tetrazine 1a comprising the solution. As described above, either magnetization or singlet tetrazine hyperpolarization was developed following pre-activation of the catalyst. After bubbling para-H^2 through the sample, the sample was transferred to 0.3 mT for a variable period of time. Following this delay, the sample was transported to the magnet and the spectrum was immediately recorded with a 90° pulse-acquire sequence. Triplet magnetization signal was deconvoluted from singlet signal, and fitted to a single exponential decay. Results are shown below in Table 1 and graphically in FIGS. 6a and 6b.

[5] = Hyperpolarization in aqueous media (3:1 methanol-d4:D2O, about 50° C.)
Protocol: One important aspect of our bioorthogonal reaction-promoted hyperpolarization approach is the ability to exploit this scheme using an aqueous solvent, which is critical for many biological reactions and would widely broaden the applicability of this strategy. […] The best results were achieved using a 3:1 methanol-d4:D2O mixture and by elevating the temperature to about 50° C. using a water bath while bubbling para-H2 through the solution.
A solution of 2 was prepared in the same 3:1 methanol-d4:D2O mixed solvent and was injected after the hyperpolarization was established for the precursor tetrazine.

[6] = Dilution effect on hyperpolarization (injection of pure methanol-d4); details: 200 μL methanol-d4 injected; singlet order at 0.3 mT
Protocol: To observe the effect of simple dilution on hyperpolarization, pure methanol-d4 was injected into a solution of hyperpolarized tetrazine to obtain a diluted hyperpolarized signal as follows: tetrazine 1a was hyperpolarized singlet order at 0.3 mT and the spectra were acquired (as described in Example 4). The sample was again bubbled with para-H2 for 3 minutes at 0.3 mT, then the pressure was released and the injection valve was opened, after which 200 μL of methanol-d4 was quickly injected and the sample was manually transferred into the magnet to read out the signal (detailed in Example 4, but with the key difference: pure methanol-d4 used instead of a solution of 2 in methanol-d4). […] The signal observed was about half of the signal before addition.

[7] = Injection and detection with small tip angle (product relaxation lifetime); details: 15° tip angle, 6 consecutive spectra in the magnet, 1.6 s delay
Protocol: In addition to using a 90° pulse-acquire sequence for detection after injection, experiments using small tip angles (15° or 11.25°) were conducted to acquire a series of detection within a short time window (˜10 s), and to use that information to determine the relaxation lifetime of different spin orders of the hyperpolarized product.
FIG. 9, panel a: magnetization of ^15N-enriched tetrazine 1a is first hyperpolarized at 0.4 μT, then a solution of 2 in methanol-d4 is injected (as described in Example 4). Then, the sample is manually transferred as quickly as possible into the magnet, using 15° tip angle to acquire 6 spectra consecutively, with a 1.6 s delay between each acquisition. […] Panel b: singlet spin order of ^15N-enriched tetrazine 1a is first hyperpolarized at 0.3 mT, then a solution of 2 in methanol-d4 is injected (as described in Example 4). Then, the sample is manually transferred as quickly as possible into the magnet, using 11.25° tip angle to acquire 6 spectra consecutively, with a 1.6 s delay between each acquisition. […] Panels c-e: relaxation constant measurements of the hyperpolarized product magnetization, hyperpolarized ^15N2 gas, and hyperpolarized product singlet. The product magnetization has T1 lifetime of ˜6.9 s.

[8] = at 0.3 mT, 1.5 mM in methanol-d4
[9] = tetrazine concentration 0.60 mM
[10] = tetrazine concentration 3.75 mM
[11] = 3:1 methanol-d4:D2O, about 50° C.

lifetime Ts of product ([1]; held at 0.3 mT): 24 ± 6 s
signal enhancement over thermal spectra, product anti-phase (singlet) signal [1]: 180 fold
SMILES: [2H]c1[15n][15n]c(-c2ccccc2)c2c1CC[C@H]1[C@@H](CO)[C@H]1CC2 [3b, (1-Phenyl-6,6a,7,7a,8,9-hexahydro-5H-cyclopropa[5,6]cycloocta[1,2-d]pyridazin-7-yl-4-d-2,3-^15N2)methanol]

lifetime Ts of product ([1]; held at 0.3 mT): 13 ± 2 s
magnetization lifetime T1 of product ([1]; held at 0.3 mT): 13 ± 4 s
enhancement over thermal spectra, hyperpolarized product magnetization ([1]; tetrazine magnetization hyperpolarized at 0.4 μT, then 2 added at 0.3 mT): 540 fold
signal enhancement over thermal spectra, product anti-phase (singlet) signal [1]: 140 fold
product magnetization T1 lifetime [7]: ~6.9 s
hyperpolarized signal from cycloaddition product ([5]; 3:1 CD3OD:D2O, 50° C.): detected the hyperpolarized signal
SMILES: OC[C@H]1[C@H]2CCc3c(c[15n][15n]c3-c3ccccc3)CC[C@@H]12 (racemic) [3a, (1-Phenyl-6,6a,7,7a,8,9-hexahydro-5H-cyclopropa[5,6]cycloocta[1,2-d]pyridazin-7-yl-2,3-15N2)methanol]

The remaining lines, values behind:

SMILES: [2H]c1[15n][15n]c(-c2ccccc2)[15n][15n]1 [1b, 3-Phenyl-1,2,4,5-tetrazine-6-d-1,2,4,5-^15N4]
relaxation constant of the scalar order of the 15N spin pairs, Ts [2, 8]: 2.1 ± 0.7 min
enhancement of hyperpolarized scalar order ([2]; singlet mode, 1.5 mM in methanol-d4): 2900 fold
hyperpolarized magnetization (T1) obtainable ([2]; μT fields): not possible to create the hyperpolarized magnetization

SMILES: c1ccc(-c2nncnn2)cc1 [1c, 3-Phenyl-1,2,4,5-tetrazine]
time until pink color completely dissipated on reaction with 2 [3]: < 2 s

SMILES: c1ccc(-c2[15n][15n]c[15n][15n]2)cc1 [1a, 3-Phenyl-1,2,4,5-tetrazine-1,2,4,5-^15N4]
lifetime of scalar order relative to magnetization ([2]; at 0.3 mT): about 2 times
magnetization relaxation constant T1 [2, 8]: 1.4 ± 0.1 min
relaxation constant of the scalar order of the 15N spin pairs, Ts [2, 8]: 2.7 ± 0.3 min
signal enhancement over 8.45 T thermal measurements ([2]; tetrazine 1.5 mM, pyridine 1.0 mM, Ir(COD)(IMes)Cl 0.15 mM in methanol-d4): up to 3,000 fold
Singlet enhancement at 0 s delay (normalized to 1.5 mM singlet, %) [4, 9]: 96%
Z-Magnetization enhancement at 0 s delay (normalized to 1.5 mM Z-magnetization, %) [4, 9]: 130%
T1 [4, 9]: 74 s
Ts [4, 9]: 357 s
Singlet enhancement at 0 s delay (normalized to 1.5 mM singlet, %) ([4]; tetrazine concentration 1.5 mM): 100%
Z-Magnetization enhancement at 0 s delay (normalized to 1.5 mM Z-magnetization, %) ([4]; tetrazine concentration 1.5 mM): 100%
T1 ([4]; tetrazine concentration 1.5 mM): 91 s
Ts ([4]; tetrazine concentration 1.5 mM): 137 s
Singlet enhancement at 0 s delay (normalized to 1.5 mM singlet, %) [4, 10]: 77%
Z-Magnetization enhancement at 0 s delay (normalized to 1.5 mM Z-magnetization, %) [4, 10]: 86%
T1 [4, 10]: 72 s
Ts [4, 10]: 58 s
Singlet enhancement at 0 s delay (normalized to 1.5 mM singlet, %) ([4]; tetrazine concentration 7.5 mM): 56%
Z-Magnetization enhancement at 0 s delay (normalized to 1.5 mM Z-magnetization, %) ([4]; tetrazine concentration 7.5 mM): 66%
T1 ([4]; tetrazine concentration 7.5 mM): 47 s
Ts ([4]; tetrazine concentration 7.5 mM): 48 s
enhancement compared to that in neat methanol-d4 [5, 11]: about 30%
signal enhancement [5, 11]: ~900 fold
hyperpolarized singlet signal after dilution relative to signal before addition [6]: about half
